{
  "source": "PubChem BioAssay AID2060499",
  "about": "(Molecular Pharmacology Branch, DTP, NCI, 2025);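 also: spheroids exposed to compounds for 7 days before readout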",
  "test_system": "777334-354-R2-J4-PDC tumor spheroids with HUVEC/MSC, viability",
  "assay": "Anticancer human tumor 777334-354-R2-J4-PDC patient-derived pancreatic adenocarcinoma cell line growth inhibition [GQUAD]",
  "details": "for IC50: curve of first compound; for viability, T/C: stronger effect = lower value",
  "description": "DNA G-quadruplex Stabilizer Agents in Combinations in Complex Spheroids\nA high-throughput screen of multi-cell type tumor spheroids was designed to identify active combinations of DNA G-quadruplex stabilizer agents and targeted small molecules. Complex spheroids include a stromal component modeled by human endothelial cells (HUVEC) and fibroblasts modeled by human mesenchymal stem cells (MSCs). The concentration ranges selected for each drug and investigational agent were based upon clinically achievable concentrations if the clinical Cmax of the agent was known.\nCompounds. The drugs and investigational agents: pidnarulex (CX-5461; NSC782164), APTO-253 (NSC789042), BRACO-19 (NSC847499), peposertib (NSC802822), ceralasertib (NSC780249), elimusertib (NSC800525), camonsertib (NSC841442), AZD-1390 (NSC803789), olaparib (NSC753686), talazoparib (NSC767125), ART-558 (NSC835418), sotorasib (NSC818433), MRTX-1133 (NSC836407), SN-38 (NSC673596), topotecan (NSC609699), etoposide (NSC141540), doxorubicin (NSC123127), gemcitabine (NSC613327), 5-fluorouracil (NSC19893), paclitaxel (NSC125973), vemurafenib (NSC761431), panobinostat (NSC761190), R-306465 (JNJ-16241199; NSC773264), adavosertib (NSC754352), TP-3654 (NSC805149), carboplatin (NSC241240), KSQ-4279 (NSC840948), and staurosporine (NSC755774) were obtained from the National Cancer Institute (NCI) Developmental Therapeutics Program Chemical Repository (34). The FDA-approved anticancer drug set is available from the NCI Developmental Therapeutics Program. […] The stock solutions were prepared in dimethyl sulfoxide (DMSO, Sigma-Aldrich, St. Louis, MO, cat. D2650) at 800-fold the tested concentration and stored at -70 degrees C prior to their use. All drugs and investigational agents were tested over a range starting from a high concentration at or near the clinical Cmax and decreasing in half-log increments. If the clinical Cmax for an agent had not been determined, the highest concentration tested was 10 microM.\n2.3 Cell Culture. All cells were maintained in an incubator at 37 degrees C and 5% CO2 with 95% humidity. The PDC lines were cultured according to standard operating procedures established by the NCI PDMR. All PDCs were thawed and cultured in Matrigel-coated flasks prepared with a working solution of 1X Ham's F-12 nutrient mix, without supplementation (Invitrogen, cat. 11765054), 100 U/mL penicillin-streptomycin (Invitrogen, cat. 15140122), and 2.5% Matrigel (Corning Inc., cat. 354248) for the first three passages. The 857933-349-R-J2-PDC line was cultured in 6C/Colon 1B media, which includes advanced DMEM/F-12 (Thermo Fisher Scientific, cat. 12634028), 10 mM HEPES (Thermo Fisher Scientific, cat. 15630080), 1X GlutaMAX supplement (Thermo Fisher Scientific, cat. 35050061), 0.1 mg/mL primocin (InvivoGen, cat. ant-pm-2), 10% defined fetal bovine serum, heat inactivated (HyClone Laboratories Inc., cat. SH30070.03HI), 50% L-WRN conditioned media (ATCC, cat. CRL-3276), 1.25 mM N-Acetyl-L-cysteine (Sigma-Aldrich, cat. A9165), 10 mM nicotinamide (Sigma-Aldrich, cat. N0636), 1X B-27 supplement (Thermo Fisher Scientific, cat. 17504044), 1X N-2 supplement (Thermo Fisher Scientific, cat. 17502048), 10 microM Y-27632 dihydrochloride (Tocris Bioscience, cat. 1254), and 50 ng/mL human EGF recombinant protein (Thermo Fisher Scientific, cat. PHG0311). The 485176-168-R4-J1-PDC line was cultured in Panc media, which includes all 6C/Colon 1B media components plus 100 ng/mL human FGF-10 (Thermo Fisher Scientific, cat. 100-26), 500 nM SB-431542 (Selleckchem, cat. S1067), and gastrin (Tocris, cat. 3006).\n[…]",
  "data": [
    {"smiles": "Cc1cccc(N(C)C(=O)C2C(O)CCN2c2nc(C)cc(C(F)(F)F)c2C#N)c1", "note": "(configuration not stated) + Cc1[nH]c2ccc(F)cc2c1-c1nc2c3cccnc3c3ncccc3c2[nH]1", "values": [
      {"measurement": "IC50", "setting": "second compound 0.0316 µM", "result": "> 10", "unit": "µM"},
      {"measurement": "IC50", "setting": "second compound 0.1 µM", "result": "> 10", "unit": "µM"},
      {"measurement": "IC50", "setting": "second compound 0.316 µM", "result": "> 10", "unit": "µM"},
      {"measurement": "IC50", "setting": "second compound 1 µM", "result": "> 10", "unit": "µM"},
      {"measurement": "IC50", "setting": "second compound 3.16 µM", "result": "< 0.0316", "unit": "µM"},
      {"measurement": "IC50", "setting": "second compound 10 µM", "result": "< 0.0316", "unit": "µM"},
      {"measurement": "viability, T/C", "setting": "second compound 0.0316 µM, first compound 0.0316 µM", "result": 112, "unit": "%"},
      {"measurement": "viability, T/C", "setting": "second compound 0.0316 µM, first compound 0.1 µM", "result": 104, "unit": "%"},
      {"measurement": "viability, T/C", "setting": "second compound 0.0316 µM, first compound 0.316 µM", "result": 95.3, "unit": "%"},
      {"measurement": "viability, T/C", "setting": "second compound 0.0316 µM, first compound 1 µM", "result": 95.5, "unit": "%"},
      {"measurement": "viability, T/C", "setting": "second compound 0.0316 µM, first compound 3.16 µM", "result": 94.5, "unit": "%"},
      {"measurement": "viability, T/C", "setting": "second compound 0.0316 µM, first compound 10 µM", "result": 92.9, "unit": "%"},
      {"measurement": "viability, T/C", "setting": "second compound 0.1 µM, first compound 0.0316 µM", "result": 97.6, "unit": "%"},
      {"measurement": "viability, T/C", "setting": "second compound 0.1 µM, first compound 0.1 µM", "result": 97, "unit": "%"},
      {"measurement": "viability, T/C", "setting": "second compound 0.1 µM, first compound 0.316 µM", "result": 92.1, "unit": "%"},
      {"measurement": "viability, T/C", "setting": "second compound 0.1 µM, first compound 1 µM", "result": 93.4, "unit": "%"},
      {"measurement": "viability, T/C", "setting": "second compound 0.1 µM, first compound 3.16 µM", "result": 103, "unit": "%"},
      {"measurement": "viability, T/C", "setting": "second compound 0.1 µM, first compound 10 µM", "result": 101, "unit": "%"},
      {"measurement": "viability, T/C", "setting": "second compound 0.316 µM, first compound 0.0316 µM", "result": 95.3, "unit": "%"},
      {"measurement": "viability, T/C", "setting": "second compound 0.316 µM, first compound 0.1 µM", "result": 88.5, "unit": "%"},
      {"measurement": "viability, T/C", "setting": "second compound 0.316 µM, first compound 0.316 µM", "result": 101, "unit": "%"},
      {"measurement": "viability, T/C", "setting": "second compound 0.316 µM, first compound 1 µM", "result": 95.8, "unit": "%"},
      {"measurement": "viability, T/C", "setting": "second compound 0.316 µM, first compound 3.16 µM", "result": 95.8, "unit": "%"},
      {"measurement": "viability, T/C", "setting": "second compound 0.316 µM, first compound 10 µM", "result": 91.2, "unit": "%"},
      {"measurement": "viability, T/C", "setting": "second compound 1 µM, first compound 0.0316 µM", "result": 78.8, "unit": "%"},
      {"measurement": "viability, T/C", "setting": "second compound 1 µM, first compound 0.1 µM", "result": 85.4, "unit": "%"},
      {"measurement": "viability, T/C", "setting": "second compound 1 µM, first compound 0.316 µM", "result": 83.3, "unit": "%"},
      {"measurement": "viability, T/C", "setting": "second compound 1 µM, first compound 1 µM", "result": 71, "unit": "%"},
      {"measurement": "viability, T/C", "setting": "second compound 1 µM, first compound 3.16 µM", "result": 90.4, "unit": "%"},
      {"measurement": "viability, T/C", "setting": "second compound 1 µM, first compound 10 µM", "result": 87.2, "unit": "%"},
      {"measurement": "viability, T/C", "setting": "second compound 3.16 µM, first compound 0.0316 µM", "result": 35.1, "unit": "%"},
      {"measurement": "viability, T/C", "setting": "second compound 3.16 µM, first compound 0.1 µM", "result": 36.6, "unit": "%"},
      {"measurement": "viability, T/C", "setting": "second compound 3.16 µM, first compound 0.316 µM", "result": 37.3, "unit": "%"},
      {"measurement": "viability, T/C", "setting": "second compound 3.16 µM, first compound 1 µM", "result": 31.1, "unit": "%"},
      {"measurement": "viability, T/C", "setting": "second compound 3.16 µM, first compound 3.16 µM", "result": 33.5, "unit": "%"},
      {"measurement": "viability, T/C", "setting": "second compound 3.16 µM, first compound 10 µM", "result": 46, "unit": "%"},
      {"measurement": "viability, T/C", "setting": "second compound 10 µM, first compound 0.0316 µM", "result": 32.4, "unit": "%"},
      {"measurement": "viability, T/C", "setting": "second compound 10 µM, first compound 0.1 µM", "result": 34.5, "unit": "%"},
      {"measurement": "viability, T/C", "setting": "second compound 10 µM, first compound 0.316 µM", "result": 35.7, "unit": "%"},
      {"measurement": "viability, T/C", "setting": "second compound 10 µM, first compound 1 µM", "result": 30.5, "unit": "%"},
      {"measurement": "viability, T/C", "setting": "second compound 10 µM, first compound 3.16 µM", "result": 25.7, "unit": "%"},
      {"measurement": "viability, T/C", "setting": "second compound 10 µM, first compound 10 µM", "result": 38.8, "unit": "%"}
    ]}
  ]
}
